6 compounds from paper PMC9706486, “INOSITOL (1,3,4) TRIPHOSPHATE 5/6 KINASE1-dependent inositol polyphosphates regulate auxin responses in Arabidopsis” (Plant Physiology, 2022) can be followed below.

The target in the first assay is T1, TIR1–ASK1–IAA7 auxin receptor complex (ASK1–TIR1–Aux/IAA–IAA receptor complex) (Arabidopsis thaliana, UniProt Q570C0).
T1 construct: ASK1–TIR1 co-purified from insect cells; IAA7 ORF as recombinant His8-MBP fusion (pET28-His8-MBP vector); mixed at molar ratio 1:3 (ASK1–TIR1 : IAA7); with SKP1-like protein 1A; Auxin-responsive protein IAA7
T1 sequence (Q570C0 1-594): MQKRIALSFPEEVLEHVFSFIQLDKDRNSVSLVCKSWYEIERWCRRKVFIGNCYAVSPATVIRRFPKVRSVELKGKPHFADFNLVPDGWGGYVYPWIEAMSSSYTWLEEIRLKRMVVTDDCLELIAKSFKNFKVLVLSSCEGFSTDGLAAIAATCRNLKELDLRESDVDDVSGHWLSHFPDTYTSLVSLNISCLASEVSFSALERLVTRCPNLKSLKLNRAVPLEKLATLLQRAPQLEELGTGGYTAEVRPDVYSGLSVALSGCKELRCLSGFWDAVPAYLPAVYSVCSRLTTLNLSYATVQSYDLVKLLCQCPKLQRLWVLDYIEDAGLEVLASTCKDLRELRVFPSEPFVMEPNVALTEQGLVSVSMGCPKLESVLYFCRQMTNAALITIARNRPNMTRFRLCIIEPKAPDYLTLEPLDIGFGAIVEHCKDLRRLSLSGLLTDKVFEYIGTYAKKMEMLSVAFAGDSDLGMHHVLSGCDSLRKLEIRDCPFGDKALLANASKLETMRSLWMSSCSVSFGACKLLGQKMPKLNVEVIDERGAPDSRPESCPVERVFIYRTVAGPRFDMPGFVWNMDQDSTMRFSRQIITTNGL
T1 sequence (Q39255 1-160 partner): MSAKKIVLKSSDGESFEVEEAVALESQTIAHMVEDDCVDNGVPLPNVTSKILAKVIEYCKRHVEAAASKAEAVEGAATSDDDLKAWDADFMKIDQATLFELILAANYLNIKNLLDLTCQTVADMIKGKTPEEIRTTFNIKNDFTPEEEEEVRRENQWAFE
T1 sequence (Q38825 1-243 partner): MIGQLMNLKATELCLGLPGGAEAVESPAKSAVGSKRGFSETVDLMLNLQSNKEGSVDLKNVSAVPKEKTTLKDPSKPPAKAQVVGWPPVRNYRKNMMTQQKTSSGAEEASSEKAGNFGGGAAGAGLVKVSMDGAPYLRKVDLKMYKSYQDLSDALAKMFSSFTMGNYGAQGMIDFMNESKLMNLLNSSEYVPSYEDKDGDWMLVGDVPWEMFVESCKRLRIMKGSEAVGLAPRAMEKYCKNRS
Nature of the assay: competitive radioligand displacement of [3H]-InsP6, Ni-NTA pull-down. The format is binding.
Settings: not given
In general terms: Loss of bound radioactivity is the signal in a displacement assay; it reports binding, not function.
The IC50 is the point on the concentration scale where inhibition reaches its midpoint. Read a low IC50 as greater potency. `O=P(O)(O)O[C@H]1[C@@H](OP(=O)(O)O)[C@H](OP(=O)(O)O)[C@@H](OP(=O)(O)OP(=O)(O)O)[C@H](OP(=O)(O)O)[C@H]1OP(=O)(O)O` [5-InsP7] showed an IC50 of 0.02 µM.
Take `O=P(O)(O)O[C@@H]1[C@@H](OP(=O)(O)O)[C@@H](OP(=O)(O)O)[C@@H](O)[C@H](OP(=O)(O)O)[C@H]1OP(=O)(O)O` [InsP5 [1-OH]]: the half-inhibitory concentration (IC50) was determined as 0.114 µM.
As to `O=P(O)(O)O[C@@H]1[C@@H](OP(=O)(O)O)[C@H](OP(=O)(O)O)[C@@H](O)[C@@H](OP(=O)(O)O)[C@H]1OP(=O)(O)O` [InsP5 [3-OH]], the IC50 is 0.031 µM.
Same read-out and setting: under `O=P(O)(O)O[C@H]1[C@@H](OP(=O)(O)O)[C@H](OP(=O)(O)O)[C@@H](O)[C@H](OP(=O)(O)O)[C@H]1OP(=O)(O)O` [InsP5 [5-OH]] stands 0.034 µM; under `O=P(O)(O)O[C@H]1[C@H](OP(=O)(O)O)[C@@H](OP(=O)(O)O)[C@H](OP(=O)(O)O)[C@@H](OP(=O)(O)O)[C@H]1OP(=O)(O)O` [InsP6], 0.019 µM.

The target in the next assay is T1, TIR1–ASK1–IAA7 auxin receptor complex (ASK1–TIR1–Aux/IAA–IAA receptor complex). Kind of assay: auxin-dependent pull-down of ASK1–TIR1 with [3H]-InsP6 by His8-MBP-IAA7. The format is binding. Particulars: 0.1 uM IAA versus no auxin; pH 7.5, 4 °C; read-out is recovered [3H]-InsP6.
Take `O=C(O)Cc1c[nH]c2ccccc12` [IAA]: the “auxin-dependent pull-down of ASK1-TIR1 with [3H]-InsP6 by His8-MBP-IAA7” value was “auxin is critical for the interaction between ASK–TIR1 and Aux/IAA protein”.
